From US20260034135A1, “USE OF N6-BENZYLAMINOPURINE AS AN APPETITE SUPPRESSANT” (THE GOVERNING COUNCIL OF THE UNIVERSITY OF TORONTO, priority 2022, published 2026)

How the values were obtained:
[1] = Intraperitoneal insulin tolerance test (ITT); type: in vivo, CD-1 mice
Method: All protocols using mice were approved by the University Animal Care Committee of the University of Toronto and were performed in accordance with the Canadian Council on Animal Care. Animal experiments were performed in three separate animal facilities: Medical Sciences Building (MSB), Centre for Cellular and Biomolecular Research (CCBR) and the Biological Sciences Facility (BSF) due to ongoing construction and housing changes. Facilities and dates are indicated in each experimental cohort. N6-benzylaminopurine (BAP; also called N6-benzyladenine) was obtained from Sigma (B3408, cell culture grade in powder form; CAS number 1214-39-7). Male and female CD-1 mice aged 6-7 weeks were acquired from Charles Rivers and acclimated on a chow diet for one week prior to experimentation. Mice were then weight-matched and placed on either a 60% high fat diet (HFD) or sucrose-matched control diet for 4 weeks (from Research Diets: 60% HFD D12492 and the sucrose-matched control diet […]). After 3 weeks on the diet, mice were acclimated for one week to the drinking apparatus, a 50 mL canonical tube with a drinking tube. After 4 weeks on the diet, the mice were again weight-matched and randomly assigned to either the control or BAP group. […] The average dosages achieved using this method are as follows: male HFD (200 mg/kg/day), male control (157 mg/kg/day), female HFD (189 mg/kg/day), and female control (129.9 mg/kg/day). The mice were exposed continuously to the solutions for a total of 33 days. One week prior to the end of the experiment (day 28), the mice were fasted for 4 hr and underwent intraperitoneal insulin tolerance testing (ITT). After 33 days, the mice were sacrificed, and their tissues were collected. RNA was isolated from the collected hypothalamic and used to quantify gene expression via qRT-PCR. Male mice were placed on a 60% HFD for 8 weeks prior to the ITT and GTT analyses. At 4 weeks, treatment with BAP or vehicle was introduced on a daily basis in the honey emulsion as described above. The mice were then briefly fasted to determine the response to insulin or glucose. For the intraperitoneal insulin tolerance test (ITT), mice were transferred to clean cages without food and fasted for 4 hours. The mice were weighed after 3 hours of fasting and these weights were used to determine optimal insulin dosage (1 IU/kg). The appropriate amount of insulin was aliquoted. After 4 hours of fasting, blood glucose was measured via tail vein using a standard glucometer. This value was recorded as the 0-minute timepoint. The mice were intraperitoneal injected with their aliquoted amount of insulin and returned to their cage. Blood glucose was measured via tail vein 15, 30, and 60 minutes after insulin injection. Mice were provided with 20% glucose solution and removed from ITT if hypoglycemia was observed. Upon completion of ITT, mice were returned to cages with food and water and monitored for adverse effects.

mHypoA-59 cell line = assay: Gene expression by qRT-PCR in mHypoA-59 hypothalamic cell line; type: cell-based, mouse; details: 100 μM BAP, 16 hr
Method: (§1) Hypothalamic neurons from embryonic and adult mice were previously immortalized to generate the clonal cell lines mHypoE-46, mHypoE-44, mHypoE-41, mHypoE-38, mHypoA-59, a FAC-sorted POMC/GFP mouse-derived cell line, mHypoA-POMC/GFP-2, and a mixed culture mHypoA-Bmal1-WT/F cell line (6, 13, 14). The mHypoE-46, mHypoE-44, and mHypoA-Bmal1-WT/F lines were cultured in DMEM containing 1000 mg/L glucose supplemented with 5% FBS and 1% pen/strep. The mHypoE-41, mHypoE-38, and mHypoA-59 cell lines were cultured in DMEM containing 4500 mg/L glucose supplemented with 2% FBS and 1% pen/strep. The mHypoA-POMC/GFP-2 line was cultured in DMEM containing 1000 mg/L glucose supplemented with 2% FBS and 1% pen/strep. All cells were maintained in 5% CO2 at 37° C. BAP was initially dissolved in DMSO solvent (vehicle control) to achieve 1000x the intended dose. The BAP solution was then diluted 1:1000 with the growth media used for the cell line. For co-treatment experiments, the vehicle control for ATP, UDP, and PKI was water, and for the H89 PKA inhibitor was DMSO. Neuropeptide gene expression levels were determined by qRT-PCR.
(§2) For cell culture experiments, total RNA was isolated using PureLink RNA isolation kit (Thermofisher Scientific, Burlington, ON, Canada) according to the manufacturer's instruction with on column DNase step (PureLink DNAse kit) or DNase I treatment to remove genomic DNA. For mouse experiments, total RNA was isolated using mirVana PARIS RNA and native protein isolation kit (Thermofisher Scientific). RNA quality and quantity were measured using Nanodrop 2000 and 500-1000 ng of complimentary DNA (cDNA) was synthesized with High Capacity cDNA Reverse Transcription kit (Applied biosystems, Thermofisher Scientific). Quantitative reverse transcription polymerase chain reaction (RT-qPCR) was performed with 12.5 ng of cDNA amplified with Platinum SYBR green qPCR SuperMix-UDG with ROX on an Applied Biosystems Prism 7900HT or PowerTrack Green Master Mix on an Applied Biosystems QuantStudio 5 and gene specific primers as per manufacturer's instructions (Table 1). Data was analyzed using […] and normalized to reference gene, either 60S ribosomal protein L7 (Rpl7) or Histone 3a (His).

B16 melanoma cells = details: protein kinase A-dependent manner; cited from earlier work
[2] = tested on: mHypoA-Bmal1-WT/F cell line; assay: Gene expression by qRT-PCR in mHypoA-Bmal1-WT/F hypothalamic cell line; type: cell-based, mouse; details: 100 μM BAP, 16 hr
Method: as §1
as §2, with “For mouse experiments, total RNA was isolated using mirVana PARIS RNA and native protein isolation kit (Thermofisher Scientific).” left out

c1ccc(CNc2ncnc3nc[nH]c23)cc1 [BAP, N6-benzylaminopurine]
fasting blood glucose with BAP (ITT) ([1]; female CD-1, 60% HFD, BAP emulsion, one week prior to sacrifice, 4 hr fast (data not shown)): no significant differences
fasting blood glucose with BAP ([1]; female CD-1, BAP in drinking water, ITT one week prior to sacrifice, 4 hr fast): no significant differences
insulin sensitivity (ip insulin tolerance test) ([1]; female CD-1, HFD, BAP in drinking water, after 28 days of exposure): do not exhibit enhanced insulin sensitivity
fasting blood glucose vs HFD without BAP ([1]; male CD-1, 60% HFD, BAP in drinking water, ITT at day 28, 4 hr fast): significantly lower fasting blood glucose levels
insulin sensitivity (blood glucose after ip insulin tolerance test) ([1]; male CD-1, 60% HFD, after 28 days of daily oral BAP exposure): improved glucose tolerance
Npy mRNA expression (mHypoA-59 cell line): no effect
feeding neuropeptide expression (Npy, Agrp) in response to BAP (mHypoA-59 cell line): no changes in feeding neuropeptide expression
melanogenesis (B16 melanoma cells): induce melanogenesis
Agrp mRNA expression [2]: increased
Npy mRNA expression [2]: supressed
Pomc expression [2]: significantly induced
